We go through 20 compounds from patent US11420970B1 (NOVARTIS AG, priority 2019, dated 2022).

Structures are written as SMILES. Like-named read-outs stand apart in the source and are kept apart here.

One test has as its target NSD2 [1-1365] (Homo sapiens (Human), UniProt O96028). Briefly: LC-MS/MS-based NSD2 enzymatic assay (SAH production). Particulars: NSD2 biochemical activity, class symbols; read-out: NSD2 IC50. The class given is biochemical. A digest of the protocol:
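Full-length NSD2 [1-1365] (8 nM final) with 1 μM SAM and 400 nM mouse-liver nucleosome in Tris pH 8.0 buffer; inhibitor preincubated 20 min with enzyme/SAM before nucleosome addition. Reaction 90 min at room temperature, TFA-quenched; SAH quantified by LC-MS/MS against d4-SAH internal standard and SAH standard curve.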

Test [1] relates to cellular H3K36me2 level in multiple myeloma cell line KMS11 (t(4;14)+). Kind of test: H3K36me2 cellular FRET assay in KMS11-Par line. The class given is cell-based. Particulars: cellular H3K36me2 level, FRET, read-out: H3K36me2 FRET in KMS11-Par. The procedure:
H3K36Me2 Cellular FRET Assay in KMS11-Par Line
Fluorescence Resonance Energy Transfer (FRET) assay was used to test the ability of candidate compound to reduce cellular H3K36me2 level in multiple myeloma cell line KMS11 (t(4;14)+) (Horizon Discovery Ltd.).
Cells were treated with tested compounds at the desired concentration for 48 hours. […] Histone extract was incubated with Eu labeled anti-H3K36me2 antibody (abcam #ab ab9049) and d2 labeled anti-H3 antibody (abcam #ab1791) for 1 hour at room temperature. A Eu labeled anti-H3 antibody (CISBIO #64CUS000) was used for loading control. The abundancy of H3K36me2 or total H3 was measured by fluorescence signal on Perkin Elmer Envison machine.

Setting [2] is: Homo sapiens, KMS-11, KMS11-Par line.

Chain of NSD2 [1-1365] (O96028 whole entry): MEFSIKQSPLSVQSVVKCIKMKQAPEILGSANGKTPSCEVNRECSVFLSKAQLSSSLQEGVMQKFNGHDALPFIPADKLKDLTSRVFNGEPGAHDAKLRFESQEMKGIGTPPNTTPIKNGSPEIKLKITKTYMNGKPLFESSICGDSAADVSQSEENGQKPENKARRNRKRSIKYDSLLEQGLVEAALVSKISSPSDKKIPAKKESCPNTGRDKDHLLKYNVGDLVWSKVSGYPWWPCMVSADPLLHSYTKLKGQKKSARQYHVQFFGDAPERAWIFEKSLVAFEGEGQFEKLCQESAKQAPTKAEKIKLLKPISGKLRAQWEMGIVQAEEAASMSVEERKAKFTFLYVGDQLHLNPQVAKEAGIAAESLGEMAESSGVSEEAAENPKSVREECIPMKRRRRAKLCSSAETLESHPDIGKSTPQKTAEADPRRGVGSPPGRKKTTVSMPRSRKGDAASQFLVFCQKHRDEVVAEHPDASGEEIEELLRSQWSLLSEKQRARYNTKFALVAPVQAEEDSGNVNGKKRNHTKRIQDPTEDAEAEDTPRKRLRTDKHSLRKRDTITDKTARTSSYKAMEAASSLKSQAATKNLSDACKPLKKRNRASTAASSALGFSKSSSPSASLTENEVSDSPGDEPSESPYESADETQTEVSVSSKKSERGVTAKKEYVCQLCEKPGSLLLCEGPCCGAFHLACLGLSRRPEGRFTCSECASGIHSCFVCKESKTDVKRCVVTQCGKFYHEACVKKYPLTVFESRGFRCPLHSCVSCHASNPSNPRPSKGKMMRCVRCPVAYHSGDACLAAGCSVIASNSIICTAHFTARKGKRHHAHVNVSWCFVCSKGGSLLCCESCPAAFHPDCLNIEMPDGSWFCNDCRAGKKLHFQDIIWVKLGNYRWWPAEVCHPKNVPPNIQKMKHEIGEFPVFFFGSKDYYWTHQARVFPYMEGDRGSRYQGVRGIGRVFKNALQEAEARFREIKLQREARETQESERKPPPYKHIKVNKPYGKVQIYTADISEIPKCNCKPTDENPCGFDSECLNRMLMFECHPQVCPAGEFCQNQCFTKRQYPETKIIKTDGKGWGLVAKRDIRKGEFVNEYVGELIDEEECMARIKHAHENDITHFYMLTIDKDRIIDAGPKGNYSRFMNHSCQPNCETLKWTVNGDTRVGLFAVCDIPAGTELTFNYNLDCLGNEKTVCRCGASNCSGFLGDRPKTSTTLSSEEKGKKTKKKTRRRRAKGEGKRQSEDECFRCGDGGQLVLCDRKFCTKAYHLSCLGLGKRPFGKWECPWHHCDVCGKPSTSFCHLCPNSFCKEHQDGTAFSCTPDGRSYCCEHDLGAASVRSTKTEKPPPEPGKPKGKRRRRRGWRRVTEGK

Take `COc1ccc(-c2cc(Cn3cnc4c(N)ncnc43)c(N3CCC[C@](N)(COC(C)C)C3)cn2)cc1F` [Example 25, (R)-9-((5-(3-amino-3-(isopropoxymethyl)piperidin-1-yl)-2-(3-fluoro-4-methoxyphenyl)pyridin-4-yl)methyl)-9H-purin-6-amine]: the IC50 on NSD2 [1-1365] was 0.001 to 0.01 µM; in test [1] (setting [2]), 0.995 µM.
On to `COC[C@@]1(N)CCCN(c2cnc(-c3cccc(Cl)c3)cc2Cn2cnc3c(N)ncnc32)C1` [Example 27, (R)-9-((5-(3-amino-3-(methoxymethyl)piperidin-1-yl)-2-(3-chlorophenyl)pyridin-4-yl)methyl)-9H-purin-6-amine], for which the IC50 on NSD2 [1-1365] was 0.001 to 0.01 µM; in test [1] (setting [2]) it was 0.501 µM.
As to `COC[C@@]1(N)CCCN(c2cnc(-c3ccc(F)cc3F)cc2Cn2cnc3c(N)ncnc32)C1` [Example 29, (R)-9-((5-(3-amino-3-(methoxymethyl)piperidin-1-yl)-2-(2,4-difluorophenyl)pyridin-4-yl)methyl)-9H-purin-6-amine], the IC50 is 0.001 to 0.01 µM at NSD2 [1-1365] and 0.225 µM in test [1] (setting [2]).
Consider `COC[C@@]1(N)CCCN(c2cnc(-c3ccc(OC)cc3F)cc2Cn2cnc3c(N)ncnc32)C1` [Example 33, (R)-9-((5-(3-amino-3-(methoxymethyl)piperidin-1-yl)-2-(2-fluoro-4-methoxyphenyl)pyridin-4-yl)methyl)-9H-purin-6-amine], for which the IC50 at NSD2 [1-1365] was 0.001 to 0.01 µM; in test [1] (setting [2]), 1.03 µM.
Consider `CC(C)OC[C@@]1(N)CCCN(c2cnc(-c3ccc(F)c(F)c3)cc2Cn2cnc3c(N)ncnc32)C1` [Example 34, (R)-9-((5-(3-amino-3-(isopropoxymethyl)piperidin-1-yl)-2-(3,4-difluorophenyl)pyridin-4-yl)methyl)-9H-purin-6-amine], for which the values for the IC50 (on NSD2 [1-1365]; in test [1] (setting [2])) were 0.001 to 0.01 µM and 1.03 µM, respectively.
As for `Nc1ncnc2c1ncn2Cc1cc(-c2cccc(F)c2)ncc1N1CCC[C@](N)(COC2CCC2)C1` [Example 35, (R)-9-((5-(3-amino-3-(cyclobutoxymethyl)piperidin-1-yl)-2-(3-fluorophenyl)pyridin-4-yl)methyl)-9H-purin-6-amine], the figures for the IC50 (on NSD2 [1-1365]; in test [1] (setting [2])) were 0.001 to 0.01 µM and 0.61 µM, respectively.
`Nc1ncnc2c1ncn2Cc1cc(-c2ccc(F)cc2)ncc1N1CCC[C@](N)(COC2CCC2)C1` [Example 36, (R)-9-((5-(3-amino-3-(cyclobutoxymethyl)piperidin-1-yl)-2-(4-fluorophenyl)pyridin-4-yl)methyl)-9H-purin-6-amine]: the results for the IC50 (at NSD2 [1-1365]; in test [1] (setting [2])) were 0.01 to 1 µM and 0.416 µM, respectively.
For the compound `COC[C@@]1(N)CCCN(c2cnc(-c3ccc(OC)c(F)c3)cc2Cn2cnc3c(N)ncnc32)C1` [Example 38, (R)-9-((5-(3-amino-3-(methoxymethyl)piperidin-1-yl)-2-(3-fluoro-4-methoxyphenyl)pyridin-4-yl)methyl)-9H-purin-6-amine], the figures for the IC50 (at NSD2 [1-1365]; in test [1] (KMS11-Par line)) were 0.01 to 1 µM and 0.721 µM, respectively.
With `COc1ccc(-c2cc(Cn3cnc4c(N)ncnc43)c(N3CCC[C@](N)(COCC(F)(F)F)C3)cn2)cc1F` [Example 39, (R)-9-((5-(3-amino-3-((2,2,2-trifluoroethoxy)methyl)piperidin-1-yl)-2-(3-fluoro-4-methoxyphenyl)pyridin-4-yl)methyl)-9H-purin-6-amine], the IC50 is 0.01 to 1 µM on NSD2 [1-1365] and 2.56 µM in test [1] (setting [2]).
`Nc1ncnc2c1ncn2Cc1cc(-c2cccc(F)c2)ncc1N1CCC[C@](N)(COC(F)F)C1` [Example 40, (R)-9-((5-(3-amino-3-((difluoromethoxy)methyl)piperidin-1-yl)-2-(3-fluorophenyl)pyridin-4-yl)methyl)-9H-purin-6-amine]: the IC50 is 0.01 to 1 µM at NSD2 [1-1365] and 0.77 µM in test [1] (setting [2]).
As to `Nc1ncnc2c1ncn2Cc1cc(-c2ccc(F)c(F)c2)ncc1N1CCC[C@](N)(COCC(F)(F)F)C1` [Example 43, (R)-9-((5-(3-amino-3-((2,2,2-trifluoroethoxy)methyl)piperidin-1-yl)-2-(3,4-difluorophenyl)pyridin-4-yl)methyl)-9H-purin-6-amine], the IC50 on NSD2 [1-1365] is 0.01 to 1 µM; in test [1] (setting [2]), 1.24 µM.
Turning to `Nc1ncnc2c1ncn2Cc1cc(-c2ccc(F)cc2)ncc1N1CCC[C@](N)(COC(F)F)C1` [Example 44, (R)-9-((5-(3-amino-3-((difluoromethoxy)methyl)piperidin-1-yl)-2-(4-fluorophenyl)pyridin-4-yl)methyl)-9H-purin-6-amine], the IC50 on NSD2 [1-1365] was 0.01 to 1 µM; in test [1] (setting [2]), 1.62 µM.
Turning to `Nc1ncnc2c1ncn2Cc1cc(-c2ccc(F)cc2)ncc1N1CCC[C@](N)(COCC(F)(F)F)C1` [Example 45, (R)-9-((5-(3-amino-3-((2,2,2-trifluoroethoxy)methyl)piperidin-1-yl)-2-(4-fluorophenyl)pyridin-4-yl)methyl)-9H-purin-6-amine], the values for the IC50 (at NSD2 [1-1365]; in test [1] (setting [2])) were 0.01 to 1 µM and 0.705 µM, respectively.
As to `COC[C@@]1(N)CCCN(c2cnc(-c3ccc(OC)c(F)c3)cc2Cn2cnc3c(N)ncnc32)C1` [Example 46], the IC50 was 0.001 to 0.01 µM on NSD2 [1-1365] and 0.315 µM in test [1] (KMS11-Par line).
`Nc1ncnc2c1ncn2Cc1cc(-c2ccc(F)c(F)c2)ncc1N1CCC[C@](N)(Cc2nccs2)C1` [Example 53, (S)-9-((5-(3-amino-3-(thiazol-2-ylmethyl)piperidin-1-yl)-2-(3,4-difluorophenyl)pyridin-4-yl)methyl)-9H-purin-6-amine]: the figures for the IC50 (on NSD2 [1-1365]; in test [1] (setting [2])) were 0.001 to 0.01 µM and 0.327 µM, respectively.
As for `Nc1ncnc2c1ncn2Cc1cc(-c2cccc(F)c2)ncc1N1CCC[C@](N)(CC(=O)O)C1` [Example 58, (S)-2-(3-amino-1-(4-((6-amino-9H-purin-9-yl)methyl)-6-(3-fluorophenyl)pyridin-3-yl)piperidin-3-yl)acetic acid], the results for the IC50 (on NSD2 [1-1365]; in test [1] (setting [2])) were 0.001 to 0.01 µM and 2.64 µM, respectively.
Regarding `CN(C)C(=O)C[C@@]1(N)CCCN(c2cnc(-c3ccc(F)c(F)c3)cc2Cn2cnc3c(N)nccc32)C1` [Example 59, (S)-2-(3-amino-1-(4-((4-amino-1H-imidazo[4,5-c]pyridin-1-yl)methyl)-6-(3,4-difluorophenyl)pyridin-3-yl)piperidin-3-yl)-N,N-dimethylacetamide], the IC50 at NSD2 [1-1365] was 0.001 to 0.01 µM; in test [1] (setting [2]), 33.3 µM.
Regarding `CNC(=O)CC1(N)CCCN(c2cnc(-c3cccc(F)c3)cc2Cn2cnc3c(N)ncnc32)C1` (stereo not shown) [Example 66, 2-(3-amino-1-(4-((6-amino-9H-purin-9-yl)methyl)-6-(3-fluorophenyl)pyridin-3-yl)piperidin-3-yl)-N-methylacetamide], the IC50 on NSD2 [1-1365] is 0.01 to 1 µM; in test [1] (setting [2]), 118 µM.
With `CNC(=O)CC1(N)CCCN(c2cnc(-c3ccc(F)c(F)c3)cc2Cn2cnc3c(N)ncc(Cl)c32)C1` (stereo not shown) [Example 67, 2-(3-amino-1-(4-((4-amino-7-chloro-1H-imidazo[4,5-c]pyridin-1-yl)methyl)-6-(3,4-difluorophenyl)pyridin-3-yl)piperidin-3-yl)-N-methylacetamide], the IC50 is 0.01 to 1 µM at NSD2 [1-1365] and 4.25 µM in test [1] (setting [2]).
On to `CN(C)C(=O)C[C@@]1(N)CCCN(c2cnc(-c3cccc(F)c3)cc2Cn2cnc3c(N)ncnc32)C1` [Example 70, (S)-2-(3-amino-1-(4-((6-amino-9H-purin-9-yl)methyl)-6-(3-fluorophenyl)pyridin-3-yl)piperidin-3-yl)-N,N-dimethylacetamide], for which the IC50 on NSD2 [1-1365] is 0.01 to 1 µM; in test [1] (setting [2]), 9.44 µM.
